What is called EC50 is the concentration needed to bring the measured effect to its halfway point. Low readings indicate a more potent agent, high ones a less potent agent. One may read the Emax as the greatest response seen or fitted, relative to the assay's reference. What is called Ki is a measure of affinity in units of concentration, obtained from inhibition or displacement.

Experiment [1] has as its target T1, μ-opioid receptor (Homo sapiens (Human), UniProt P35372). Description: μ-opioid receptor [35S]GTPγS functional assay, HEK-293 or CHO cells. The class given is biochemical. To be noted: for EC50: GTPγS; for Emax: relative to DAMGO. As to the method: (§1) μ-Opioid Receptor Functional Assay Procedures: [^35S]GTPγS functional assays were conducted using freshly thawed μ-receptor membranes prepared in-house from a cell line expressing recombinant μ opioid receptor in a HEK-293, CHO or U-2 OS cell background, or purchased from a commercial source (Perkin Elmer, Shelton, Conn.; or DiscovRx, Fremont, Calif.). Assay reactions were prepared by sequentially adding the following reagents to binding buffer (100 mM NaCl, 10 mM MgCl2, 20 mM HEPES, pH 7.4) on ice (final concentrations indicated): membrane protein (0.026 mg/mL), saponin ([…]), GDP ([…]) and [^35S]GTPγS (0.20 nM; Perkin Elmer, Shelton, Conn.). The prepared membrane solution (190 μl/well) was transferred to 96-shallow well polypropylene plates containing 10 μl of 20× concentrated stock solutions of the agonist [D-Ala^2, N-methyl-Phe^4 Gly-ol^5]-enkephalin (DAMGO) prepared in dimethyl sulfoxide (DMSO). Plates were incubated for 30 min at about 25° C. with shaking. Reactions were terminated by rapid filtration onto 96-well Unifilter GF/B filter plates (Perkin Elmer, Shelton, Conn.) using a 96-well tissue harvester (Perkin Elmer, Shelton, Conn.) followed by three filtration washes with 200 μl of ice-cold wash buffer (10 mM NaH2PO4, 10 mM Na2HPO4, pH 7.4). Filter plates were subsequently dried at 50° C. for 2-3 hours. BetaScint scintillation cocktail (Perkin Elmer, Shelton, Conn.) was added (50 μl/well) and plates were counted using a Packard Top-Count for 1 min/well. Data were analyzed using the sigmoidal dose-response curve fitting functions in GraphPad PRISM v. 3.0, or an in-house function for non-linear, sigmoidal dose-response curve-fitting.
(§2) μ-Opioid Receptor Functional Data: μ GTP EC50 is the concentration of a compound providing 50% of the maximal response for the compound at a μ-opioid receptor.
(§3) μ GTP Emax (%) is the maximal effect elicited by a compound relative to the effect elicited by DAMGO, a standard μ agonist. Generally, the μ GTP Emax (%) value measures the efficacy of a compound to treat or prevent pain or other Conditions.
(§4) In TABLE 2, activity response of certain Compounds of the Invention to the μ-, δ- and κ-opioid receptors was determined as described above for functional assays using HEK-293 or CHO cells.
For orientation: Binding of GTPγS marks nucleotide exchange on a G protein.

The target of experiment [2] is T2, κ opioid receptor (Homo sapiens (Human), UniProt P41145). Kind of experiment: κ-opioid receptor [35S]GTPγS functional assay, HEK-293 or CHO cells. To be noted: for EC50: GTPγS; for Emax: relative to U69,593. The class given is biochemical. As for the experimental part:
(§5) κ-Opioid Receptor Functional Assay Procedures: Functional [^35S]GTPγS binding assays were conducted as follows. κ opioid receptor membrane solution was prepared by sequentially adding final concentrations of 0.026 μg/μl κ membrane protein (in-house), 10 μg/mL saponin, 3 μM GDP and 0.20 nM [^35S]GTPγS to binding buffer (100 mM NaCl, 10 mM MgCl2, 20 mM HEPES, pH 7.4) on ice. The prepared membrane solution (190 μl/well) was transferred to 96-shallow well polypropylene plates containing 10 μl of 20× concentrated stock solutions of agonist prepared in DMSO. Plates were incubated for 30 min at a temperature of about 25° C. with shaking. Reactions were terminated by rapid filtration onto 96-well Unifilter GF/B filter plates (Perkin Elmer, Shelton, Conn.) using a 96-well tissue harvester (Packard) and followed by three filtration washes with 200 μl ice-cold binding buffer (10 mM NaH2PO4, 10 mM Na2HPO4, pH 7.4). Filter plates were subsequently dried at 50° C. for 2-3 hours. Fifty μl/well scintillation cocktail (Perkin Elmer, Shelton, Conn.) was added and plates were counted in a Packard Top-Count for 1 min/well.
(§6) κ-Oploid Receptor Functional Data: κ GTP EC50 is the concentration of a compound providing 50% of the maximal response for the compound at a K receptor.
(§7) κ GTP Emax (%) is the maximal effect elicited by a compound relative to the effect elicited by U69,593.
as §4

Experiment [3] has as its target recombinant human kappa opioid receptor (κ) (Homo sapiens (Human), UniProt P41145). Description: κ-opioid receptor radioligand dose-displacement binding assay ([3H]-U69,593). As to the method:
κ-Opioid Receptor Binding Assay Procedures: Membranes from HEK-293 cells, CHO or U-2 OS cells expressing the recombinant human kappa opioid receptor (κ) (cloned in house) were prepared by lysing cells in ice cold hypotonic buffer (2.5 mM MgCl2, 50 mM HEPES, pH 7.4) (10 mL/10 cm dish) followed by homogenization with a tissue grinder/Teflon pestle. Membranes were collected by centrifugation at 30,000×g for 15 min at 4° C. and pellets were resuspended in hypotonic buffer to a final concentration of 1-3 mg/mL. Protein concentrations were determined using the BioRad protein assay reagent with bovine serum albumen as standard. Aliquots of κ receptor membranes were stored at −80° C.
Radioligand dose displacement assays used 0.4 nM [^3H]-U69,593 (GE Healthcare, Piscataway, N.J.; 40 Ci/mmole) with 15 μg membrane protein (recombinant κ opioid receptor expressed in HEK 293 cells; in-house prep) in a final volume of 200 μl binding buffer (5% DMSO, 50 mM Trizma base, pH 7.4). Non-specific binding was determined in the presence of 10 μM unlabeled naloxone or U69,593. All reactions were performed in 96-well polypropylene plates for 1 hour at a temperature of about 25° C. Binding reactions were terminated by rapid filtration onto 96-well Unifilter GF/C filter plates (Perkin Elmer, Shelton, Conn.) presoaked in 0.5% polyethylenimine (Sigma). Harvesting was performed using a 96-well tissue harvester (Perkin Elmer, Shelton, Conn.) followed by five filtration washes with 200 μl ice-cold binding buffer. Filter plates were subsequently dried at 50° C. for 1-2 hours. Fifty μl/well scintillation cocktail (Perkin Elmer, Shelton, Conn.) was added and plates were counted in a Packard Top-Count for 1 min/well.
In TABLE 1, binding affinity of certain Compounds of the Invention to the μ-, δ- and κ-opioid receptors was determined as described above.

The target of experiment [4] is T2, κ opioid receptor. Description: κ-opioid receptor [35S]GTPγS functional assay, U-2 OS cells. The class given is biochemical. As to conditions: for EC50: GTPγS; for Emax: relative to U69,593. As to the method: as §5, §6, §7
(§8) The following TABLE 3 provides results on the activity response of certain Compounds of the Invention at the μ- and κ-opioid receptors determined as described above using U-2 OS cells.

Experiment [5] has as its target T1, μ-opioid receptor. Description: μ-opioid receptor [35S]GTPγS functional assay, U-2 OS cells. The class given is biochemical. As to conditions: for EC50: GTPγS; for Emax: relative to DAMGO. As to the method:
as §1, §2, §3, §8

The structures appear in SMILES notation.

`COc1ccc(CN2C=C3[C@H]4Cc5ccc(OC)cc5[C@@]3(CCN4CC3CC3)CC2=O)cc1` [Compound 2, (5R,10bR)-13-(cyclopropylmethyl)-9-methoxy-3-(4-methoxybenzyl)-5,6-dihydro-1H-5,10b-(epiminoethano)benzo[f]isoquinolin-2(3H)-one]: the EC50 is 268 ± 44 nM on μ-opioid receptor [1] and 714 ± 256 nM on κ opioid receptor [2]. The results for the maximum response (Emax) at μ-opioid receptor [1] and on κ opioid receptor [2] were 95.3% and 68.8%, respectively.
For the molecule `COc1ccc2c(c1)[C@]13CCN(CC4CC4)[C@H](C2)[C@@H]1CNC(=O)C3` [Compound 3, (4aS,5R,10bS)-13-(cyclopropylmethyl)-9-methoxy-4,4-a,5,6-tetrahydro-1H-5,10b-(epiminoethano)benzo[f]isoquinolin-2(3H)-one], the values for the EC50 at μ-opioid receptor [1] and on κ opioid receptor [2] were 856 ± 48.7 nM and 435 ± 74 nM, respectively. Moreover, the Emax is 62.7% at μ-opioid receptor [1] and 84% on κ opioid receptor [2]. For the same molecule, the Ki in experiment [3] was determined as 5.84 ± 0.59 nM.
As to `COc1ccc(CN2CC[C@]34CCN(CC5CC5)[C@H](Cc5ccc(OC)cc53)[C@@H]4C2)cc1` [Compound 9, (4aS,5R,10bR)-13-(cyclopropylmethyl)-9-methoxy-3-(4-methoxybenzyl)-2,3,4,4a,5,6-hexahydro-1H-5,10b-(epiminoethano)benzo[f]isoquinoline], on μ-opioid receptor [1], the EC50 stood at 732 ± 70.1 nM and the Emax was 89%. For the same molecule, at κ opioid receptor [2], the EC50 came out at 1990 ± 339 nM and the Emax amounted to 46.7%. In addition, the Ki in experiment [3] stood at 204 ± 48.6 nM.
Take `COc1ccc2c(c1)[C@@]13CCNC[C@H]1[C@@H](C2)N(CC1CC1)CC3` [Compound 10, (4aS,5R,10bR)-13-(cyclopropylmethyl)-9-methoxy-2,3,4,4a,5,6-hexahydro-1H-5,10b-(epiminoethano)benzo[f]isoquinoline]: the results for the EC50 at μ-opioid receptor [1] and at κ opioid receptor [2] were 2180 ± 394 nM and 2180 ± 562 nM, respectively. The Emax on μ-opioid receptor [1] turned out to be 66.7%; on κ opioid receptor [2], 71.3%. Also, the Ki in experiment [3] was found to be 37 ± 7.96 nM.
With `NC(=O)CN1CC[C@]23CCN(CC4CC4)[C@H](Cc4ccc(O)cc42)[C@@H]3C1` [Compound 11, 2-((4aS,5R,10bR)-13-(cyclopropylmethyl)-9-hydroxy-4,4-a,5,6-tetrahydro-1H-5,10b-(epiminoethano)benzo[f]isoquinolin-3(2H)-yl)acetamide], the EC50 came to 0.92 ± 0.15 nM at κ opioid receptor [4], 2.44 ± 0.76 nM at μ-opioid receptor [1], 2.41 ± 0.36 nM on μ-opioid receptor [5] and 5.25 ± 1.09 nM at κ opioid receptor [2]. Besides, the Emax on κ opioid receptor [4] was determined as 102 ± 2.33%; on μ-opioid receptor [1], 87.2%; at μ-opioid receptor [5], 39.3 ± 3.28%; on κ opioid receptor [2] it was 63%. Besides, the Ki in experiment [3] amounted to 0.26 nM.
Regarding `Oc1ccc(CN2CC[C@]34CCN(CC5CC5)[C@H](Cc5ccc(O)cc53)[C@@H]4C2)cc1` [Compound 12, (4aS,5R,10bR)-13-(cyclopropylmethyl)-3-(4-hydroxybenzyl)-2,3,4,4a,5,6-hexahydro-1H-5,10b-(epiminoethano)benzo[f]isoquinolin-9-ol], the EC50 on κ opioid receptor [4] amounted to 6.51 ± 1.03 nM; on μ-opioid receptor [1] it was 6.87 ± 0.84 nM; on μ-opioid receptor [5], 7.11 ± 2.99 nM; on κ opioid receptor [2], 20.8 ± 2.53 nM. For the same molecule, the Emax at κ opioid receptor [4] came out at 110 ± 2.73%; on μ-opioid receptor [1], 58%; on μ-opioid receptor [5] it was 47 ± 8.14%; on κ opioid receptor [2] it was 54.3%. For the same molecule, the Ki in experiment [3] came to 0.98 ± 0.25 nM.
Consider `C[C@H](N)C(=O)N1CC[C@]23CCN(CC4CC4)[C@H](Cc4ccc(O)cc42)[C@@H]3C1` [Compound 14, (S)-2-amino-1-((4aS,5R,10bS)-13-(cyclopropylmethyl)-9-hydroxy-4,4-a,5,6-tetrahydro-1H-5,10b-(epiminoethano)benzo[f]isoquinolin-3(2H)-yl)propan-1-one], for which the EC50 was determined as 0.16 ± 0.025 nM at κ opioid receptor [4], 4.62 ± 1.55 nM on μ-opioid receptor [1], 9.82 ± 1.96 nM at μ-opioid receptor [5] and 1.98 ± 0.51 nM on κ opioid receptor [2]. Further, the maximal response (Emax) on κ opioid receptor [4] stood at 104 ± 3.61%; at μ-opioid receptor [1], 82.7%; on μ-opioid receptor [5] it was 35.3 ± 4.18%; on κ opioid receptor [2], 86%. Further, the inhibition constant Ki in experiment [3] was 0.09 ± 0.02 nM.

Values taken from US8937084B2, “Nitrogen containing morphinan derivatives and the use thereof” (Purdue Pharma L.P., priority 2012, dated 2015).
